Experimental data published in patent publication US20240158457A1, “INTERLEUKIN-18 RECEPTOR BINDING POLYPEPTIDES AND USES THEREOF” (Medikine, Inc., priority 2022, published 2024).
Where a SMILES comes first, the peptide text is derived from it. Bridges are numbered along the chain shown (N, C = ends).

Legend:
[1] = biological target: T1, IL-18 Binding Protein (IL-18BP) (Homo sapiens, UniProt O95998); experiment: Direct binding ELISA for IL-18BP; conditions: C-terminally biotinylated forms of peptides; at up to 100 nM IL-18BP
T1 construct: purchased ACROBiosystems (Acro); R&D Systems ILP-H5253; 119-BP
T1 sequence (O95998 31-194): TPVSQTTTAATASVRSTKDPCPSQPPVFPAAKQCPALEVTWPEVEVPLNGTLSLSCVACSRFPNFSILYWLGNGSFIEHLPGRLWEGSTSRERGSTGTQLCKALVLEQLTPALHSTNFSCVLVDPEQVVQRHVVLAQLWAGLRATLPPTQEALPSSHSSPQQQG
Procedure: Binding of synthetic monomer peptides to IL-18 Binding Protein (IL-18BP) was measured using a direct binding ELISA. Briefly, 96-well ELISA plates were coated with NeutrAvidin (NA) at 5 μg per well in PBS, washed, then blocked with PBS containing 1% BSA. Wells were washed and representative peptides, synthesized with a C-terminal biotin were diluted to 300 nM in assay buffer and added to the NA coated wells. Wells were washed and serial dilutions starting at 100 nM of IL-18R subunits, IL-18BP from either of two sources (Acro #ILP-H5253 and R&D #119-BP), and control IgG Fc fusions) were added to the wells and incubated for 1 hr at 4° C. Then plates were washed and goat anti-human IgG Fc-HRP (Southern Biotech #2048-05) detection antibody was added for 1 hr. Wells were developed with TMB for 5-15 min and the enzyme reaction was stopped with a H2SO4 solution.

[2] = biological target: T2, IL-18R (Homo sapiens, UniProt O95256+Q13478); experiment: HEK-BLUE IL18R reporter assay for IL-18BP/IL-18 interaction (agonist activity with and without IL-18BP); type: cell-based; conditions: IL-18BP up to 100 nM; 30 nM dimer 10; FIG. 22B
T2 construct: host or cells: HEK293 (HEK-BLUE IL-18 reporter cell line)
T2 sequence (Q13478 19-541): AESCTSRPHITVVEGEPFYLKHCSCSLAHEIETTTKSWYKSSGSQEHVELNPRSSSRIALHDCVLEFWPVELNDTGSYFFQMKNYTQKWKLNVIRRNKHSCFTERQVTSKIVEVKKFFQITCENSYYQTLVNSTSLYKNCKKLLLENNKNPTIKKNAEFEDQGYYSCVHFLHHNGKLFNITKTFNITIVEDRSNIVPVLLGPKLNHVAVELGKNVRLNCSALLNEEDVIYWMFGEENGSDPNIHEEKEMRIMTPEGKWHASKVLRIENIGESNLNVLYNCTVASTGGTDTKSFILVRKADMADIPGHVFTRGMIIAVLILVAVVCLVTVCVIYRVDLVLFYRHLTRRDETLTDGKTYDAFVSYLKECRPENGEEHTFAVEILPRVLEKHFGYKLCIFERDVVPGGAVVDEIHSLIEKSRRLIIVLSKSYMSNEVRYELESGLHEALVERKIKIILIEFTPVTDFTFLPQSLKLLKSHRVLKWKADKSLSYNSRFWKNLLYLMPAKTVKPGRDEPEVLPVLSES
T2 sequence (O95256 20-599): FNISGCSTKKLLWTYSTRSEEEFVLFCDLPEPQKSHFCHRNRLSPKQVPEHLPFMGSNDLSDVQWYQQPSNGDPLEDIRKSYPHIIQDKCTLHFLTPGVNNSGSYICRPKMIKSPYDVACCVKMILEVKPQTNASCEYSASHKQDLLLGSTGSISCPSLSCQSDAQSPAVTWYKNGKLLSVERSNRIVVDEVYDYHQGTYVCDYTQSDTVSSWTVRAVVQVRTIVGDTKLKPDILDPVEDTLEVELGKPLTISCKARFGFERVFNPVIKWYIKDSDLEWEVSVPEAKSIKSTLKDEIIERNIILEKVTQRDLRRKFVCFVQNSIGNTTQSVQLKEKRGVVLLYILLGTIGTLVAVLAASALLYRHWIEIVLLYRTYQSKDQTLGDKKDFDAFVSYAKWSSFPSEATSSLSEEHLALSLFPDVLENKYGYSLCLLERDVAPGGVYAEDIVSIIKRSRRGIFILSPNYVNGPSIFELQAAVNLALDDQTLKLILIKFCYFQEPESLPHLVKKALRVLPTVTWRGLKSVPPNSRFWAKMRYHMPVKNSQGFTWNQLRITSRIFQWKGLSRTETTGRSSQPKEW
Source text: IL-18 is negatively regulated by a decoy receptor called IL-18 binding protein (IL-18BP), a secreted antagonist that binds IL-18 with extremely high affinity. HEK-BLUE™ IL-18 reporter cell line (InvivoGen #hkb-hmil 18, California, USA) was used to determine the impact of heterodimer peptides composed of IL-18Ra and IL-18Rb binding peptides on the IL-18BP/IL-18 interaction. The IL-18 Reporter assay, as described in detail in Example 2, was used to investigate this interaction with the following modifications.
A serial dilution (7-point, 10-fold) of IL-18BP Fc fusion (Acro #ILP-H5253) starting at 2 μM (20-fold final concentration) was prepared in test medium in a v-bottom polypropylene 96-well plate. Human recombinant IL-18 (R&D Systems #9124-IL-050/CF) and a representative peptide agonist were prepared at 30 pM and 600 nM respectively (both at 20-fold final concentration and at approximately their respective EC70s). […] Absorbance signal at 630 nm was then measured on a plate reader. Half maximal inhibition concentration (IC50) was calculated based on a variable slope and four parameter analysis using GraphPad Prism software. When no inhibition was measured the data points were connected without a curve fit. Absorbance readings were converted to percent total of signal span, for IL-18 and peptide agonist respectively, and graphed as NF-κB reporter activity (% max).

| Compound | binding to IL-18BP [1] | inhibition of agonist activity by IL-18BP [2] |
| --- | --- | --- |
| GGELCWRPFSFVDCEEGG [alpha Synthetic Fla Consensus Construct] | did not exhibit binding | – |
| CC[C@H](C)[C@@H]1NC(=O)[C@H](CCC(=O)O)NC(=O)[C@H](CO)NC(=O)[C@H](CC(C)C)NC(=O)[C@H](Cc2c[nH]cn2)NC(=O)[C@H](CC(=O)O)NC(=O)[C@H](CO)NC(=O)[C@H](CC(C)C)NC(=O)[C@H](Cc2c[nH]c3ccccc23)NC(=O)[C@H](CC(N)=O)NC(=O)[C@@H]2CCCN2C(=O)[C@@H](NC(=O)CNC(=O)CN)CSSC[C@@H](C(=O)NCC(=O)NCC(=O)O)NC(=O)[C@H](Cc2c[nH]c3ccccc23)NC1=O [Dimer 5C09, GGCPNWLSDHLSEIWCGG] (H-GGCPNWLSDHLSEIWCGG-OH; disulfide 3-16; N-terminus and C-terminus assumed) | did not exhibit binding | – |
| CC(C)C[C@H](NC(=O)CNC(=O)CN)C(=O)N[C@H]1CSSC[C@@H](C(=O)N[C@@H](CC(C)C)C(=O)NCC(=O)NCC(=O)O)NC(=O)[C@@H]2CCCN2C(=O)CNC(=O)[C@H](CCCNC(=N)N)NC(=O)[C@H](C(C)C)NC(=O)[C@H]([C@@H](C)O)NC(=O)CNC(=O)CNC(=O)[C@H](Cc2ccccc2)NC(=O)[C@H](Cc2ccc(O)cc2)NC(=O)[C@H](Cc2c[nH]c3ccccc23)NC1=O [Family 2 synthetic construct, GGLCWYFGGTVRGPCLGG] (H-GGLCWYFGGTVRGPCLGG-OH; disulfide 4-15; N-terminus and C-terminus assumed) | did not exhibit binding | – |
| CC[C@H](C)[C@H](NC(=O)[C@@H]1CSSC[C@H](NC(=O)[C@H](CCC(=O)O)NC(=O)[C@H](Cc2ccccc2)NC(=O)[C@H](Cc2ccccc2)NC(=O)CNC(=O)CNC(=O)[C@H](CO)NC(=O)CNC(=O)CCc2cn(CC[C@H](NC(=O)[C@H](CC(C)C)NC(=O)[C@@H]3CSSC[C@H](NC(=O)[C@H](CC(C)C)NC(=O)CNC(=O)CN)C(=O)N[C@@H](Cc4c[nH]c5ccccc45)C(=O)N[C@@H](Cc4ccc(O)cc4)C(=O)N[C@@H](Cc4ccccc4)C(=O)NCC(=O)NCC(=O)N[C@@H]([C@@H](C)O)C(=O)N[C@@H](C(C)C)C(=O)N[C@@H](CCCNC(=N)N)C(=O)NCC(=O)N4CCC[C@H]4C(=O)N3)C(N)=O)nn2)C(=O)N[C@@H](Cc2ccccc2)C(=O)N[C@@H](Cc2ccc(O)cc2)C(=O)N[C@@H](CO)C(=O)N2CCC[C@H]2C(=O)NCC(=O)N[C@@H](Cc2c[nH]cn2)C(=O)N[C@@H](CCC(=O)O)C(=O)N[C@@H](Cc2c[nH]c3ccccc23)C(=O)N1)C(=O)N1CCC[C@H]1C(=O)N[C@@H](CO)C(=O)NCC(=O)NCC(N)=O [Dimer 10] | – | does not inhibit |
